How the values were obtained:
[1] = Pharmacokinetics of exemestane, additional 21 patients; type: in vivo; details: female, human, plasma, oral
advanced breast cancer = details: in combination with exemestane; cited from earlier work

C=C1C[C@@H]2[C@H](CC[C@]3(C)C(=O)CC[C@@H]23)[C@@]2(C)C=CC(=O)C=C12 [Exemestane]
Tmax [1]: 3.95 h | half-life [1]: 5.68 h | AUC(0-t) ([1]; 25 mg): 54.6 ng·h/mL | Cmax ([1]; 25 mg): 17 ng/mL | Tmax ([1]; 25 mg): 1.02 h | half-life ([1]; 25 mg): 6.24 h

Nc1cc(F)ccc1NC(=O)c1ccc(CNC(=O)/C=C/c2cccnc2)cc1 [chidamide]
Median PFS (advanced breast cancer): 7.4 months | Neutropenia, patients (advanced breast cancer): 51% | Thrombocytopenia, patients (advanced breast cancer): 28%
